Reference: US11518742B2 (priority 2020, dated 2022)
Read-outs that look alike come from different tables or passages of the source.

Assays:
[1] = Toxicokinetics, 14-day intranasal study in rats (Study 700041); type: in vivo; conditions: Sprague Dawley, rat, plasma, inhaled or intranasal; for AUC(0-t): read-out: AUC0-Tlast [SE]; for AUC(0-inf): read-out: AUCINF_obs
Description: The animals were monitored for mortality, clinical signs, respiratory measurements, body weights, food consumption, and body temperature. Ophthalmoscopic examinations and respiratory function tests were performed on all animals at scheduled timepoints. Clinical pathology assessments (hematology, coagulation, clinical chemistry, and urinalysis) were evaluated at termination. […] Following dosing, the Main animals were euthanized and subjected to a complete necropsy examination on Day 15. […] TK animals were euthanized after the last blood collection and discarded without further examination. At terminal euthanasia, selected tissues/organs were weighed, and microscopic evaluations of a standard set of tissues including the nasal turbinates (4 sections) and brain (7 sections) were performed for all Main and Recovery study animals.
Following dosing, animals in the Main group were euthanized and subjected to a necropsy examination on Day 15.

[2] = Toxicokinetics, 14-day intranasal study in dogs (Study 62959); type: in vivo; conditions: both sexes, Beagle, dog, plasma, inhaled or intranasal, dogs, 14-day intranasal study
Description: Assessments of mortality, clinical signs, olfactory reflex, body weights, food consumption, ophthalmology, and electrocardiograms were performed. In addition, clinical pathology assessments (hematology, coagulation, clinical chemistry and urinalysis) were evaluated once pretreatment and at termination. Blood samples were collected from the jugular vein of all animals on Days 1 and 14, at up to 8 time points relative to treatment, for analysis of test item concentration in plasma and the subsequent calculation of toxicokinetic parameters. Following dosing, the Main animals were euthanized and subjected to a complete necropsy examination on Day 15. […] All Main and Recovery study animals underwent complete necropsy examinations, selected tissues/organs were retained, and microscopic evaluations of a standard set of tissues were performed.
For toxicokinetics, a series of 8 blood samples were collected from the jugular vein from all treated animals on each of Days 1 and 14 of the treatment period at 2, 5, 10, 15, 30, and 60 minutes as well as 3 and 8 hours after treatment.

[3] = test system: Escherichia coli tester strain WP2uvrA; experiment: Bacterial Reverse Mutation Test (Ames test), Escherichia coli
[4] = female, 5 mg/kg/day, Day 1, Female
[5] = female, 5 mg/kg/day, Day 14, Female
[6] = female, 20 mg/kg/day, Day 1, Female
[7] = female, 75 mg/kg/day, Day 1, Female
[8] = female, 75 mg/kg/day, Day 14, Female
[9] = male, 5 mg/kg/day, Day 14, Male
[10] = male, 20 mg/kg/day, Day 1, Male
[11] = male, 20 mg/kg/day, Day 14, Male
[12] = male, 75 mg/kg/day, Day 1, Male
[13] = male, 75 mg/kg/day, Day 14, Male

COc1ccc2[nH]cc(CCN(C)C)c2c1 [5MeODMT, 5-methoxy-N,N-dimethyltryptamine]
Tmax ([1]; both sexes, 75 mg/kg, rats, 14-day intranasal study, 5, 20, 75 mg/kg): 2 to 5 min
half-life ([1]; both sexes, 75 mg/kg, rats, 14-day intranasal study, 5, 20, 75 mg/kg, read-out: apparent t1/2): 6.8 to 9.4 min
Cmax [1, 4]: 186 ng/mL
Tmax [1, 4]: 9.96 min
AUC(0-t) [1, 4]: 53.2 ng·h/mL
AUC(0-inf) [1, 4]: 53.7 ng·h/mL
Cmax [1, 5]: 645 ng/mL
AUC(0-t) [1, 5]: 63.8 ng·h/mL
AUC(0-inf) [1, 5]: 64 ng·h/mL
half-life ([1]; female, 5 mg/kg/day, Day 14, Female, read-out: t1/2 (converted)): 6.78 min
Cmax [1, 6]: 679 ng/mL
AUC(0-t) [1, 6]: 198 ng·h/mL
AUC(0-inf) [1, 6]: 198 ng·h/mL
Cmax ([1]; female, 20 mg/kg/day, Day 14, Female): 795 ng/mL
Cmax [1, 7]: 1310 ng/mL
AUC(0-t) [1, 7]: 228 ng·h/mL
AUC(0-inf) [1, 7]: 228 ng·h/mL
half-life ([1]; female, 75 mg/kg/day, Day 1, Female, read-out: t1/2 (converted)): 9.36 min
Cmax [1, 8]: 870 ng/mL
AUC(0-t) [1, 8]: 155 ng·h/mL
half-life ([1]; female, 75 mg/kg/day, Day 14, Female, read-out: t1/2 (converted)): 7.8 min
Cmax ([1]; male, 5 mg/kg/day, Day 1, Male): 191 ng/mL
AUC(0-t) ([1]; male, 5 mg/kg/day, Day 1, Male): 39.9 ng·h/mL
AUC(0-inf) ([1]; male, 5 mg/kg/day, Day 1, Male): 40.1 ng·h/mL
Cmax [1, 9]: 627 ng/mL
AUC(0-t) [1, 9]: 114 ng·h/mL
AUC(0-inf) [1, 9]: 115 ng·h/mL
Cmax [1, 10]: 4190 ng/mL
AUC(0-t) [1, 10]: 420 ng·h/mL
AUC(0-inf) [1, 10]: 421 ng·h/mL
half-life ([1]; male, 20 mg/kg/day, Day 1, Male, read-out: t1/2 (converted)): 7.5 min
Cmax [1, 11]: 1200 ng/mL
AUC(0-t) [1, 11]: 133 ng·h/mL
AUC(0-inf) [1, 11]: 133 ng·h/mL
half-life ([1]; male, 20 mg/kg/day, Day 14, Male, read-out: t1/2 (converted)): 8.58 min
Cmax [1, 12]: 7010 ng/mL
AUC(0-t) [1, 12]: 1030 ng·h/mL
AUC(0-inf) [1, 12]: 1040 ng·h/mL
Cmax [1, 13]: 3290 ng/mL
AUC(0-t) [1, 13]: 391 ng·h/mL
AUC(0-inf) [1, 13]: 392 ng·h/mL
half-life ([1]; male, 75 mg/kg/day, Day 14, Male, read-out: t1/2 (converted)): 6.96 min
Tmax [2]: 3 to 14 min
half-life ([2]; read-out: apparent elimination half-lives): 19 to 95 min
Cytotoxicity ([3]; E. coli strain, absence or presence of S9 mix): No cytotoxicity
Mutagenic potential (conclusion) ([3]; absence or presence of S9): no mutagenic potential
